Assay: Ketogenesis in rats in vivo (plasma (R)-3-hydroxybutyrate after oral gavage)
Parameters: species or system Male Sprague-Dawley rats
Conditions: rat, ANOVA/Dunnett P<0.05
Experimental: Male Sprague-Dawley rats (weight range 200-250 g Charles River, Margate, Kent) were group housed in polypropylene cages at a temperature of 21±4° C. and 55±20% humidity and on a standard light/dark cycle. Animals had free access to a standard pelleted rat diet and tap water at all times. Animals were accustomed to these conditions for at least one week before experimentation.
Compounds were administered by oral gavage (po). Control animals received the appropriate vehicle via the same route. The experiment was performed over 2 days (ie 2 compounds were tested per day). Blood samples were taken by cardiac puncture after the animals were killed by a British Home Office Schedule 1 method. The terminal blood sample was collected into suitable plasma preparation tubes (EDTA-coated tubes). Plasma samples were initially frozen on dry ice and transferred to a −75° C. freezer until required for subsequent analysis (spectrophotometric analysis of (R)-3-hydroxybutyrate).
Sodium DL-β-hydroxybutyrate (H-6501 Lot 111K2618) was obtained from Sigma A stock solution of β-hydroxybutyrate (40 mM DL racemate equivalent to 20 mM D-isomer) was prepared in 0.9% saline solution, kept at 4° C. and used to generate appropriate dilutions for an assay standard curve.
Commercial clinical assay kits for the determination of D-β-hydroxybutyrate were obtained from Randox Laboratories (Antrim, UK). Kits were obtained in two pack sizes (Ranbut RB1007: 10×10 ml and RB1008: 10×50 ml) but were otherwise identical. […] The kit relies on measuring the appearance of NADH via the activity of β-hydroxybutyrate dehydrogenase measured as an increase of OD340 nm. […]
The protocol supplied with the Ranbut kits was for a discrete (cuvette-based) spectrophotometzic assay, so the protocol was modified for suitability with a 96-well microplate format using blank, flat-bottomed microplates (Greiner PS 655101 Lot 98 35 01). […] Standard dilutions and samples were pipetted a single plate at a time and preincubated at 37° C. for 15 minutes in the sample compartment of a Molecular Devices VERSAmax tunable microplate reader: The appropriate volume of assay reagent was reconstituted, according to instructions, using distilled water and preincubated at 37° C. for 15 minutes using a static water bath. […] The plate was reloaded, mixed and then the change in OD340 nm followed in kinetic mode with a reading at every 15 seconds for a total of 2 minutes. The reaction rate was then determined from the OD increase over a suitable 1 minute period, after allowing a necessary period for the reaction rate to settle. The rate between 45 seconds and 105 seconds was used as the default measuring period, though occasionally a different period was used as necessary (eg if an aberrant reading was obtained at one of these time-points). […]

## arabinose (R)-3-hydroxybutyrate ester [KTX 0312]
351 mg/kg po, blood sampling 30, 120, 240 min vs vehicle
  increases in plasma 3-hydroxybutyrate concentrations (ketogenesis): did not evoke significant ketogenesis

## fructose (R)-3-hydroxybutyrate ester [KTX 0311]
441 mg/kg po, blood sampling 30, 120, 240 min vs vehicle baseline
  increases in plasma 3-hydroxybutyrate concentrations (ketogenesis): significant increases

## glucose (R)-3-hydroxybutyrate ester [KTX 0310]
440 mg/kg po, blood sampling 30, 120, 240 min vs vehicle
  increases in plasma 3-hydroxybutyrate concentrations (ketogenesis): did not evoke significant ketogenesis

## sorbitol 3-hydroxybutyrate tri-ester [KTX 0313]
300 mg/kg po, blood sampling 30, 120, 240 min vs vehicle baseline
  increases in plasma 3-hydroxybutyrate concentrations (ketogenesis): significant increases
